From publication PMC12165799, “Antimicrobial peptide developed with machine learning sequence optimization targets drug resistant Staphylococcus aureus in mice” (The Journal of Clinical Investigation, 2025)

Experiments:
[1] = system: S. aureus MW2 membrane; assay: Membrane depolarization, DiBAC4(3); assay type: cell-based, Staphylococcus aureus; details: S. aureus MW2, 32 μg/mL
Description: 466 Membrane depolarization
467 We measured bacterial membrane potential using an established protocol with minor
468 modifications (9). We prepared an exponential phase culture of S. aureus MW2 in fresh TSB
469 medium, washed the culture two times in PBS, and resuspended it in a double volume of PBS. To
470 energize the bacterial cells, we added 25 mM of glucose for 15 mins at 37°C, followed by 500 nM
471 of DiBAC4(3) (bis-(1,3-dibutylbarbituric acid) trimethine oxonol) (Thermo Fisher Scientific, ON,
472 Canada). DiBAC4(3) is a potential-sensitive probe that enters depolarized cells, binds to
474 this bacterial culture per well in a black, clear bottomed 96-well plate (Cat. no. 3904, Corning,
475 NY, USA) and monitored the fluorescence using a SpectraMax i3x (Molecular Devices, CA, USA)
476 for 20 min, with excitation at 485 nm and emission at 520 nm, until the baseline stabilized. Then
477 we added 10 µl of serially diluted peptide solutions and recorded the fluorescence for another 40
478 min. We included triton X-100 (1%) as a positive control.

[2] = system: TNFA, IL6, MCP1; assay: Cytokine estimation in infected murine skin (prophylactic model); assay type: in vivo, mice; design: TNFA in murine skin / IL6 in murine skin / MCP1 in murine skin: unit not given here; details: 2% w/w
Description: (§1) 599 In vivo murine skin infection and treatment
(§2) 600 We used a topical skin-abraded murine infection model with minor modifications to test
(§3) 601 the in vivo efficacy of the CIT-8 peptide (25). We performed all mouse studies following the
(§4) 602 protocol approved by the Institutional Animal Care and Use Committee. In brief, we anesthetized
(§5) 603 female C57BL/6 mice (6 weeks) (Jackson Laboratory, Bar Harbor, ME, USA) with ketamine-
(§6) 604 xylazine (90 mg/kg ketamine and 10 mg/kg xylazine) via intraperitoneal injection. We shaved the
(§7) 605 dorsal side of the mice in the middle of the back (area=2 cm2). To disrupt skin integrity, we tape-
(§8) 606 stripped with Tensoplast® seven times in succession, replacing the tape each time, resulting in
(§9) 607 visibly damaged skin. We infected the damaged skin area with 1 × 10^7 CFU of S. aureus MW2
(§10) 608 (exponential phase bacteria in PBS) with an inoculum of 50 µl using a pipette tip. Ten minutes
(§11) 609 (prophylactic model) and 24 h (established model) after bacterial inoculation, we applied 30 mg
(§12) 610 of 1 and 2% (w/w) CIT-8 ointment in a white petroleum jelly base (Cat no. 19-090-843, Fisher
(§13) 611 Scientific, MA, USA) to the skin. We also included animal groups treated with only petroleum
(§14) 612 jelly or with 2% commercial mupirocin ointment as negative and positive controls, respectively.
(§15) 613 For pain management, we used the analgesic buprenorphine SR (0.05 mg/kg).
(§16) 614 After 24 h of treatment, we euthanized the animals, separated the skin from the underlying
(§17) 615 fascia and muscle tissue, and excised about 2 cm2 of skin from the infected area. We ground the
(§18) 616 skin in 1ml of PBS buffer (Gibco, MD, USA). We serially diluted 100 µl of the solution in PBS
(§19) 617 and plated it on Remel™ TSA plates (Fisher, MA, USA) to estimate viable colony counts after 18
(§20) 618 h of incubation at 37 °C. Further, we added 10 µl of EDTA-Free, protease inhibitor cocktail Set III
(§21) 619 (Millipore Sigma, MA, USA) to 500 µl of the ground skin PBS solution for cytokine estimation.
(§22) 620 The Cytokine Core, LLC (Indianapolis, IN, USA) performed the cytokine concentration analysis

[3] = HPLC retention time on C18 reverse-phase column; assay type: physicochemical
Text: Table 1 Physical parameters and minimal inhibitory concentrations of citropin 1.1-derived peptides against S. aureus MW2 | column: rT^D (min)

[4] = system: S. aureus MW2 infected skin; assay: Histopathology of skin (H&E, Gram stain), prophylactic model; assay type: in vivo, mice; details: 2% w/w formulation, H&E and Gram stains
Text: 235 Supplemental Figure 13. Histopathology of vehicle and CIT-8 treated skin in the skin-abraded
236 prophylactic murine model infected with S. aureus MW2.
237 Panel A: Representative 10× images of H&E-stained murine skin sections from all n=32 animals
238 (n=8 per group). Scale bars: 0.05 mm. Panel B: Representative 40× images of Gram-stained murine
239 skin sections. Scale bars: 0.01 mm. White arrows (1-5) indicate key histopathological features; 1:
240 Disorganized epidermal layer with epidermal disruption; 2: Dense infiltration of
241 polymorphonuclear (PMN) and mononuclear (MN) cells in both the epidermis and dermis,
242 indicative of heightened inflammation; 3: More intact epidermis; 4: Reduced numbers of PMN
243 and MN cells; 5: Bacterial patches.
(1 picture or pasted object on this page, not shown here)

[5] = system: S. aureus VRS1 (VRSA) exponential and persister cells; assay: S. aureus persister cell and time-kill assays (VRS1); assay type: cell-based, Staphylococcus aureus; details: 10 × MIC
Description: 305 Minimal inhibitory concentration (MIC) assay
We made serial dilutions of 10×
We determined the MIC using OD600
Accordingly, we added 150 mM NaCl,
319 established protocol (5).
323 aureus VRS1) in PBS. To assess the killing kinetics of CIT-8 in persister cells, we added 1 ml of
324 cell suspension to the wells of a 2-ml deep-well assay block (Cat no. 3960, Corning, NY, USA)
We also included ciprofloxacin (at 10 μg/ml) for S.
326 aureus MW2 and linezolid (100 μg/ml) for S. aureus VRS1 as antibiotic controls. Additionally,
327 we included bithionol (at 10 μg/ml) as a positive control, known for its ability to kill stationary
328 phase persister cells (6). We incubated the plates at 37°C, with shaking at 225 rpm. At specific
329 times (0, 15, 30, 60, and 120 min), we collected 10 μl samples, diluted them serially, and then
330 plated them on tryptic soy agar (TSA) (BD Difco, NJ, USA) plates. We incubated the TSA plates
331 for 18 hours at 37°C for colony counting. We performed these experiments in duplicate. As a
332 comparison, we prepared the exponential cells of S. aureus MW2 and VRS1 in PBS and analyzed
333 their killing kinetics in the same manner as described for persister cells.

[6] = system: S. aureus MW2 skin infection; assay: Skin-abraded murine infection, prophylactic (acute) model, bacterial load; assay type: in vivo, mice; details: for Reduction of S. aureus MW2 burden vs vehicle, prophylactic model: single treatment 10 minutes after inoculation, n = 12; for Reduction of S. aureus MW2 burden, repeat of prophylactic model: n = 8
Description: as §1, §2, §3, §4, §5, §6, §7, §8, §9, §10, §11, §12, §13, §14, §15, §16, §17, §18, §19, §20, §21, §22

## H-GLFKVIKKLLKVI-NH2 [CIT-8]
[1]
  Membrane depolarization, DIBAC4(3) fluorescence: rapid increase in DIBAC4(3) fluorescence
[2]; animal 1
  IL6 in murine skin: 3.152
  MCP1 in murine skin: 6.488
  TNFA in murine skin: 126
[2]; animal 2
  IL6 in murine skin: 2.798
  MCP1 in murine skin: 3.271
  TNFA in murine skin: 153.385
[2]; animal 3
  IL6 in murine skin: 1.183
  MCP1 in murine skin: 2.973
  TNFA in murine skin: 114.591
[2]; animal 4
  IL6 in murine skin: 2.409
  MCP1 in murine skin: 4.047
  TNFA in murine skin: 182.154
[2]; animal 5
  IL6 in murine skin: 1.071
  MCP1 in murine skin: 1.51
  TNFA in murine skin: 103
[2]; animal 6
  IL6 in murine skin: 5.43
  MCP1 in murine skin: 10.445
  TNFA in murine skin: 372.2
[2]; n = 6
  Reduction of IL6 level in skin: 5 fold
  Reduction of MCP1 level in skin: 5 fold
  Reduction of TNFA level in skin: 2.5 fold
[3]
  rT (HPLC retention time): 22.465 min
[4]
  Histopathology of treated skin: more intact epidermis, reduced numbers of PMN and MN (less inflammation), and no bacterial biofilm patches
[5]
  Time to eradication of exponential and VRSA persister cells: ≤ 120 min
[6]; 1% ointment 10 minutes after infection, animal 1
  Bacterial load from skin specimens, prophylactic model: 11428571
[6]; 1% ointment 10 minutes after infection, animal 2
  Bacterial load from skin specimens, prophylactic model: 16000000
[6]; 1% ointment 10 minutes after infection, animal 3
  Bacterial load from skin specimens, prophylactic model: 1555556
[6]; 1% ointment 10 minutes after infection, animal 4
  Bacterial load from skin specimens, prophylactic model: 3636364
[6]; 1% ointment 10 minutes after infection, animal 5
  Bacterial load from skin specimens, prophylactic model: 6000000
[6]; 1% ointment 10 minutes after infection, animal 6
  Bacterial load from skin specimens, prophylactic model: 3111111
[6]; 1% ointment 10 minutes after infection, animal 7
  Bacterial load from skin specimens, prophylactic model: 2250000
[6]; 1% ointment 10 minutes after infection, animal 8
  Bacterial load from skin specimens, prophylactic model: 2200000
[6]; 1% ointment 10 minutes after infection, animal 9
  Bacterial load from skin specimens, prophylactic model: 4210526
[6]; 1% ointment 10 minutes after infection, animal 10
  Bacterial load from skin specimens, prophylactic model: 6153846
[6]; 1% ointment 10 minutes after infection, animal 11
  Bacterial load from skin specimens, prophylactic model: 4000000
[6]; 1% ointment 10 minutes after infection, animal 12
  Bacterial load from skin specimens, prophylactic model: 6060606
[6]; 1% w/w ointment
  Reduction of S. aureus MW2 burden vs vehicle, prophylactic model: 1.7 log
[6]; 1% w/w
  Reduction of S. aureus MW2 burden, repeat of prophylactic model: 1.4 log
[6]; 2% ointment 10 minutes after infection, animal 1
  Bacterial load from skin specimens, prophylactic model: 1000000
[6]; 2% ointment 10 minutes after infection, animal 2
  Bacterial load from skin specimens, prophylactic model: 1142857
[6]; 2% ointment 10 minutes after infection, animal 3
  Bacterial load from skin specimens, prophylactic model: 2400000
[6]; 2% ointment 10 minutes after infection, animal 4
  Bacterial load from skin specimens, prophylactic model: 444444
[6]; 2% ointment 10 minutes after infection, animal 5
  Bacterial load from skin specimens, prophylactic model: 1684211
[6]; 2% ointment 10 minutes after infection, animal 6
  Bacterial load from skin specimens, prophylactic model: 4000000
[6]; 2% ointment 10 minutes after infection, animal 7
  Bacterial load from skin specimens, prophylactic model: 666667
[6]; 2% ointment 10 minutes after infection, animal 8
  Bacterial load from skin specimens, prophylactic model: 923077
[6]; 2% ointment 10 minutes after infection, animal 9
  Bacterial load from skin specimens, prophylactic model: 909091
[6]; 2% ointment 10 minutes after infection, animal 10
  Bacterial load from skin specimens, prophylactic model: 4923077
[6]; 2% ointment 10 minutes after infection, animal 11
  Bacterial load from skin specimens, prophylactic model: 3666667
[6]; 2% ointment 10 minutes after infection, animal 12
  Bacterial load from skin specimens, prophylactic model: 1200000
[6]; 2% w/w in petroleum jelly (abstract)
  Reduction of bacterial burden, mouse model of MRSA skin infection: 2.3 log10
[6]; 2% w/w ointment
  Reduction of S. aureus MW2 burden vs vehicle, prophylactic model: 2.3 log
[6]; 2% w/w
  Reduction of S. aureus MW2 burden, repeat of prophylactic model: 2.1 log
